This note sets out measurements from patent US20210059927A1, “COSMETIC COMPOSITION COMPRISING DENDROBIUM CANDIDUM FLOWER EXTRACT” (LG HOUSEHOLD & HEALTH CARE LTD., priority 2017, published 2021).

One assay deals with B-16 mouse melanoma cell. Put plainly: Inhibitory effect of melanin production at cellular level. The settings on record: positive control 100 ppm, 3 days, relative to negative control; n=4. Type of assay: cell-based. As to the method: In order to confirm the brightening effect through the inhibition of melanin production of each extract prepared in Preparation Examples 1 to 9, the samples obtained in Preparation Examples 1 to 9 were added to a culture medium of mouse melanoma cells (B-16 mouse melanoma cell) to measure the total amount of melanin (Lotan R. et al., Cancer Res. 40:3345-3350, 1980). Prior to measuring the total amount of melanin, brightening evaluation was performed at non-toxic concentrations by first evaluating the toxicity of mouse melanoma cells. […]
Thereafter, the cells were trypsin-treated, detached from the culture vessel, and centrifuged, and melanin was extracted. The detached cells were added with 1 mL of sodium hydroxide solution (1N concentration), boiled for 10 minutes to dissolve the melanin, and the absorbance was measured at 405 nm using a spectrophotometer to measure the amount of melanin produced.
The amount of melanin was measured by the absorbance of the unit cell count (1×10^6 cells), and the melanin production inhibition rate (%) was calculated as the total amount of melanin relative to the negative control group, and the results are shown in Table 2 below.

A further assay relates to RAW264.7 cell line. Put plainly: Inhibitory effect of nitric oxide (NO) production, GRIESS method, LPS-stimulated. Format: cell-based, mouse. To be noted: positive control 20 ppm, LPS 1 ppm, 24 hours, relative to LPS-only group; n=4. As to the method:
In order to confirm the anti-inflammatory effect and skin trouble improvement effect of each extract prepared in Preparation Examples 1 to 9, NO production inhibitory effect was measured by the GRIESS method using RAW264.7 cell line (ATCC number: CRL-2278).
Specifically, RAW264.7 cells, which are macrophages of mice, were subcultured several times, and cultured for 24 hours after being placed in a 24-well plate such that 3×10^5 cells were placed in one well. After exchanging with a cell medium containing the sample at a final concentration of 0.1%, an untreated medium was used as a negative group and for a positive control group, 20 ppm of L-NG-monomethylarginine (L-NMMA) was used, which is a NO-production inhibitor. 1 ppm of lipopolysaccharide was treated as a stimulus source and cultured for 24 hours. The supernatant was transferred to a 96-well plate by 100 μL, and the GRIESS solution was added by 100 μL to react at room temperature for 10 minutes, and the NO inhibitory effect was determined by measuring the absorbance at 540 nm.
The NO production inhibitory rate (%) was calculated as a relative ratio of the amount of reduced NO compared to the LPS-only treatment group, and the results are shown in Table 3 below.
On the technique in general: The Griess reaction detects nitrite, a stable product of nitric oxide.

The subject of a further assay is Aquaporin 3. Put plainly: Moisturizing gene expression by qRT-PCR in HaCaT: AQP3. Type of assay: cell-based, human. To be noted: mRNA, positive control 10 ng/ml, negative control = 1.00, n=4. As to the method: In order to confirm the skin moisturizing effect of each extract prepared in Preparation Examples 1 to 9, gene expression related to moisturizing was measured using the cells cultured as below.
Human keratinocytes (HaCaT) were in a 6-hole cell culture plate 2×10^5 each, and then cultured using Dulbecco's Modified Eagle's medium (DMEM, Gibco, Co.) including fetal bovine serum (FBS) and antibiotics for 24 hours.
After culturing the cells, it was replaced with DMEM, High Glucose, no Glutamine, no calcium (Gibco, USA), and then the samples obtained in Preparation Examples 1 to 9 were treated at a concentration of 0.1% for 24 hours. […]
2.5 μg of RNA was quantified and reverse transcription was performed using cDNA synthesis kit (PhileKorea, Korea). […] Quantitative real time PCR (qRT-). […]
The experimental results obtained by qRT-PCT were shown by calculating with the ΔΔCT method (Livak K J, Schmittgen T D: Analysis of relative gene expression data using real-time quantitative PCR and the 2(-Delta Delta C(T)) Method, Methods, 25, 402-408(2001)) based on housekeeping gene and glyceraldehyde-3-phosphate dehydrogenase (GAPDH). To compare effects, moisturizing gene expression was measured in the same manner for a negative control group without treating samples and a positive control group treated with EGF 10 ng/ml and Ca^2+3 mM, respectively. […]

Assay [1] concerns type 1 collagen in human-derived fibroblasts. Put plainly: Synthesis promotion effect of type 1 collagen in human-derived fibroblasts (PICP EIA kit). Type of assay: cell-based. To be noted: positive control 10 ng/ml, relative to negative control; n=4. As to the method: In order to confirm the wrinkle improvement effect through promoting the synthesis of type 1 collagen of each extract prepared in Preparation Examples 1 to 9, collagen synthesis rate was measured by adding the samples obtained in Preparation Examples 1 to 9 to the culture solution of human-derived fibroblasts. The synthesis of collagen was quantified using a PICP EIA kit (Procollagen Type I C-Peptide Enzyme ImmunoAssay KIT). After adding the sample to a culture medium of fibroblasts (DMEM medium) at a final concentration of 0.1% and culturing for 48 hours, cultures were taken and the degree of collagen synthesis of type 1 collagen at each concentration was measured at 450 nm using a spectrophotometer with PICP EIA kit.
For comparison of the effects, the degree of collagen synthesis was measured in the same manner with respect to a culture medium (negative control group) of untreated fibroblasts and the sample (positive control) added with TGF-β to a final concentration of 10 ng/mL.
Collagen synthesis rate (%) was calculated as the ratio of the collagen production amount relative to the negative control, and the results are shown in Table 1 below.

Regarding `OC[C@H]1O[C@@H](Oc2ccc(O)cc2)[C@H](O)[C@@H](O)[C@@H]1O` [Albutin], the “Melanin production inhibition rate (%)” value in the assay with B-16 mouse melanoma cell was 33.13%. Regarding `CNC(=N)NCCC[C@H](N)C(=O)O` [L-NMMA, L-NG-monomethylarginine], the “NO production inhibitory rate (%)” value in the assay on RAW264.7 cell line is 51.85%.

Consider “EGF: Positive control for moisturizing gene expression, 10 ng/ml”, for which, in the assay on Aquaporin 3, the “Aquaporin 3 (fold)” value worked out at 3.27 fold. Consider TGF-β, for which the “Collagen synthesis rate (%)” value in assay [1] was 15.21%.
